From the supplement of paper PMC10307832

Tests used:
Assay in all cases: relative viability (nuclei count vs DMSO), 5 days (fraction); higher = more cells survive
[1] = tested on: NCI-H1944
Summary of the method: (§1)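 Relative viability divides the nuclei count in treated wells by that in vehicle wells. Lung cancer cell lines were seeded in 1536-well plates, dosed by pin tool the next day, and fixed and stained after 5 days in one step with final 0.05% Triton X-100, 1% formaldehyde and 1 ug/ml Hoechst. Dosing was a single drug or a fixed anchor-drug dose plus five library-drug doses (not always all listed) in √10 steps, and values are medians of duplicate plates imaged at 4×.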

[2] = tested on: NCI-H1395
Summary of the method: as §1

[3] = tested on: EPLC-272H
Summary of the method: as §1

[4] = tested on: NCI-H1437
Summary of the method: as §1

[5] = tested on: HCC-15
Summary of the method: as §1

[6] = tested on: HCC-44
Summary of the method: as §1

[7] = tested on: HCC-78
Summary of the method: as §1

[8] = tested on: NCI-H2405
Summary of the method: as §1

[9] = tested on: HCC-827
Summary of the method: as §1

[10] = tested on: NCI-H727
Summary of the method: as §1

[11] = tested on: NCI-H1792
Summary of the method: as §1

[12] = tested on: NCI-H2085
Summary of the method: as §1

[13] = tested on: HARA
Summary of the method: as §1

[14] = tested on: HCC-366
Summary of the method: as §1

[15] = tested on: COR-L23
Summary of the method: as §1

[16] = tested on: NCI-H1975
Summary of the method: as §1

[17] = tested on: NCI-H2023
Summary of the method: as §1

[18] = tested on: COR-L 105
Summary of the method: as §1

[19] = tested on: UMC-11
Summary of the method: as §1

[20] = tested on: SK-LU-1
Summary of the method: as §1

## Cc1cnc(-c2cnc(NCCNc3ccc(C#N)cn3)nc2-c2ccc(Cl)cc2Cl)[nH]1 + CC1(C)CCC(c2ccc(Cl)cc2)=C(CN2CCN(c3ccc(C(=O)NS(=O)(=O)c4ccc(N[C@H](CCN5CCOCC5)CSc5ccccc5)c(S(=O)(=O)C(F)(F)F)c4)cc3)CC2)C1 [Navitoclax] (partner 0.5 µM)
[1]; first compound 0.08 µM
  relative viability: 1.03
[1]; first compound 0.8 µM
  relative viability: 0.992
[1]; first compound 2.53 µM
  relative viability: 1
[2]; first compound 0.08 µM
  relative viability: 1.25
[2]; first compound 0.253 µM
  relative viability: 1.15
[2]; first compound 0.8 µM
  relative viability: 1.19
[2]; first compound 2.53 µM
  relative viability: 1.15
[3]; first compound 0.08 µM
  relative viability: 1.22
[3]; first compound 0.253 µM
  relative viability: 1.31
[3]; first compound 0.8 µM
  relative viability: 1.12
[3]; first compound 2.53 µM
  relative viability: 1.07
[4]; first compound 0.08 µM
  relative viability: 1.1
[4]; first compound 0.253 µM
  relative viability: 1.05
[4]; first compound 0.8 µM
  relative viability: 1.12
[4]; first compound 2.53 µM
  relative viability: 1.12
[5]; first compound 0.08 µM
  relative viability: 0.737
[5]; first compound 0.253 µM
  relative viability: 0.622
[5]; first compound 0.8 µM
  relative viability: 0.65
[5]; first compound 2.53 µM
  relative viability: 0.578
[6]; first compound 0.08 µM
  relative viability: 1.05
[6]; first compound 0.253 µM
  relative viability: 0.792
[6]; first compound 0.8 µM
  relative viability: 0.971
[6]; first compound 2.53 µM
  relative viability: 1.03
[7]; first compound 0.08 µM
  relative viability: 0.955
[7]; first compound 0.253 µM
  relative viability: 0.661
[7]; first compound 0.8 µM
  relative viability: 0.701
[7]; first compound 2.53 µM
  relative viability: 0.757
[8]; first compound 0.08 µM
  relative viability: 1.17
[8]; first compound 0.253 µM
  relative viability: 0.761
[8]; first compound 0.8 µM
  relative viability: 1.02
[8]; first compound 2.53 µM
  relative viability: 0.326
[9]; first compound 0.08 µM
  relative viability: 1.04
[9]; first compound 0.8 µM
  relative viability: 1.05
[9]; first compound 2.53 µM
  relative viability: 1.05
[10]; first compound 0.08 µM
  relative viability: 0.45
[10]; first compound 0.253 µM
  relative viability: 0.432
[10]; first compound 0.8 µM
  relative viability: 0.476
[10]; first compound 2.53 µM
  relative viability: 0.364
[11]; first compound 0.08 µM
  relative viability: 0.624
[11]; first compound 0.253 µM
  relative viability: 0.577
[11]; first compound 0.8 µM
  relative viability: 0.601
[11]; first compound 2.53 µM
  relative viability: 0.568
[12]; first compound 0.08 µM
  relative viability: 1.17
[12]; first compound 0.253 µM
  relative viability: 1.15
[12]; first compound 0.8 µM
  relative viability: 1.03
[12]; first compound 2.53 µM
  relative viability: 1.16
[13]; first compound 0.08 µM
  relative viability: 1.13
[13]; first compound 0.253 µM
  relative viability: 1.12
[13]; first compound 0.8 µM
  relative viability: 1.16
[13]; first compound 2.53 µM
  relative viability: 1.19
[14]; first compound 0.08 µM
  relative viability: 1.04
[14]; first compound 0.253 µM
  relative viability: 1.02
[14]; first compound 0.8 µM
  relative viability: 1.09
[14]; first compound 2.53 µM
  relative viability: 0.89
[15]; first compound 0.08 µM
  relative viability: 1.07
[15]; first compound 0.253 µM
  relative viability: 1.03
[15]; first compound 0.8 µM
  relative viability: 1.09
[15]; first compound 2.53 µM
  relative viability: 1.06
[16]; first compound 0.08 µM
  relative viability: 1.12
[16]; first compound 0.253 µM
  relative viability: 0.982
[16]; first compound 0.8 µM
  relative viability: 0.933
[16]; first compound 2.53 µM
  relative viability: 0.567
[17]; first compound 0.08 µM
  relative viability: 1.01
[17]; first compound 0.253 µM
  relative viability: 0.977
[17]; first compound 0.8 µM
  relative viability: 1.08
[17]; first compound 2.53 µM
  relative viability: 1.09
[18]; first compound 0.08 µM
  relative viability: 0.875
[18]; first compound 0.253 µM
  relative viability: 0.686
[18]; first compound 0.8 µM
  relative viability: 1.54
[18]; first compound 2.53 µM
  relative viability: 0.558
[19]; first compound 0.08 µM
  relative viability: 0.341
[19]; first compound 0.253 µM
  relative viability: 0.295
[19]; first compound 0.8 µM
  relative viability: 0.304
[19]; first compound 2.53 µM
  relative viability: 0.324
[20]; first compound 0.08 µM
  relative viability: 0.976
[20]; first compound 0.253 µM
  relative viability: 0.807
[20]; first compound 0.8 µM
  relative viability: 1.2
[20]; first compound 2.53 µM
  relative viability: 0.692
